Assay results taken from patent publication US20240368174A1, “Antiviral Heterocyclic Compounds” (Enanta Pharmaceuticals, Inc., priority 2023, published 2024).

What follows are molecules tested on HMPV clinical isolate A2 strain TN 94-49 (assay: HMPV antiviral assay, Method 2 (LLC-MK2 cells with CP-100-356, ATP-Lite)). Settings: human metapneumovirus; hMPV A2 TN/94-49, LLC-MK2 cells with CP-100-356, Method 2.
Assay type: cell-based
Experimental: In vitro HMPV antiviral activity was evaluated using the clinical isolate A2 strain TN 94-49 (obtained from Dr. John Williams, Vanderbilt University, Tennessee) and LLC-MK2 cells (Millipore Sigma CB_85062804), an immortalized kidney epithelial cell line from Macaca mulatta. Compounds were resuspended in dimethyl sulfoxide (DMSO) at 10 mM, serially diluted and added to a 384-well source plate. Subsequently, the compounds were diluted and transferred onto 384-well assay plates using the Echo-650 automated liquid handling system (Beckman Coulter, Indiana). The test compounds were assessed in duplicate at a top concentration of 200 nM followed by 2.5-fold serial dilutions to give a total of 10 concentration points. DMSO control wells were also included on the assay plates and were either infected or not, acting as positive and negative controls. A2 TN 94-49 virus infections were performed in-suspension with LLC-MK2 cells. The cells were washed twice with PBS and removed from the cell-culture flask with 0.25% trypsin-EDTA (Thermo Fisher Scientific, MA). The trypsin-EDTA was inactivated by resuspending in 2% fetal bovine serum (FBS) and OptiMEM (ThermoFisher Scientific, MA) containing 1% antibiotic-antimycotic. Cells were pelleted by centrifuging for 5 minutes at 800 rpm, the supernatant was removed, and cells were re-suspended and washed in PBS plus 100 μg/mL CaCl2). This step was performed twice. Cells were then re-suspended in serum-free (SF)-OptiMEM containing 4 μg/mL TPCK-Trypsin (Sigma Aldrich, MO), 1% antibiotic-antimycotic (ThermoFisher Scientific, MA), 100 μg/mL CaCl2), and 4 μM of CP-100-356, a P-glycoprotein inhibitor. Cells were counted and seeded at a density of 5,000 cells/well, 12.5 μL/well. Virus infections were done at a multiplicity of infection (MOI) of 0.16 with 12.5 μL added per well. Virus infections were performed in infection media which contained SF-OptiMEM, 100 μg/mL CaCl2) and 1% antibiotic-antimycotic. HMPV viral stocks are suspended in infection media+5% glycerol, thus an equal volume of infection media+5% glycerol was added to uninfected wells to equalize the final % glycerol across all wells of the assay plate. The final concentration of TPCK-trypsin was 2 μg/mL. The final concentration of CP-100-356 was 2 μM. The assay plates were incubated at 37° C., 5% CO2 for 7 days. After 7 days incubation, 12.5 μL of ATP-Lite (PerkinElmer, MA) was added to each well and the raw luminescence values were determined using the Envision 2104 (Perkin Elmer, MA). The average of the raw luminescence values for the cells and virus only positive control wells was subtracted from all conditions tested and the percent cell health was determined by dividing these values by the average of the cells only negative control wells. EC50 values were then calculated by non-linear regression using a four-parameter curve logistic equation. The curve fit model employed was XLFit Dose Response One Site Model 200: y=(A+(B/(1+((x/C)^D)))), where A is the minimum y value, B is the maximum y value, C is the log EC50 value, and D is the slope factor.
`COc1cc(C(=O)NC[C@](O)(c2cc3c(c(-c4cc(C(F)(F)F)c(F)cc4F)n2)OC[C@]3(C)C(N)=O)C2CC2)cc2cc(C(F)(F)F)cnc12` [Example 329] was tested, and the EC50 was < 0.2 µM.
`COc1cc(C(=O)NC[C@](O)(c2cc3c(c(-c4ccc(F)c(C(F)(F)F)c4)n2)OC[C@]3(C)C(N)=O)C2CC2)cc2oc(C3CC3)nc12` [Example 330] was tested, and the EC50 was < 0.2 µM.
With `COc1cc(C(=O)NC[C@@](O)(c2ccccc2)c2cc3c(c(-c4cc(Cl)ccc4F)n2)OC[C@]3(C)C(N)=O)cc2oc(C3CC3)nc12` [Example 331] the EC50 was < 0.2 µM.
`COc1cc(C(=O)NC[C@@](O)(c2ccccc2)c2cc3c(c(-c4cc(C(F)(F)F)ccc4F)n2)OC[C@]3(C)C(N)=O)cc2oc(C3CC3)nc12` [Example 332] was tested, and the EC50 was < 0.2 µM.
For `COc1cc(C(=O)NC[C@@](O)(c2cccc(F)c2)c2cc3c(c(-c4cccc(Cl)c4Cl)n2)OC[C@]3(C)C(N)=O)cc2cc(Cl)cnc12` [Example 333], the EC50 was < 0.2 µM.
With `C[C@]1(C(N)=O)COc2c1cc([C@@](O)(CNC(=O)c1cc(OC3CC3)c3ncc(Cl)cc3c1)c1cccc(F)c1)nc2-c1cccc(Cl)c1Cl` [Example 334] the EC50 was < 0.2 µM.
With `C[C@]1(C(N)=O)COc2c1cc([C@@](O)(CNC(=O)c1cc(OC3CC3)n3nc(C4CC4)cc3c1)c1cccc(F)c1)nc2-c1cccc(Cl)c1Cl` [Example 335] the EC50 was < 0.2 µM.
For `COc1cc(C(=O)NC[C@@](O)(c2cccc(F)c2)c2cc3c(c(-c4cccc(Cl)c4Cl)n2)OC[C@]3(C)C(N)=O)cc2cc(C3CC3)nn12` [Example 336], the EC50 was < 0.2 µM.
With `COc1cc(C(=O)NC[C@@](O)(c2cccc(F)c2)c2cc3c(c(-c4cccc(Cl)c4Cl)n2)OC[C@]3(C)C(N)=O)cn2cc(C3CC3)nc12` [Example 337] the EC50 was < 0.2 µM.
`C[C@]1(C(N)=O)COc2c1cc([C@@](O)(CNC(=O)c1cc(OC3CC3)c3nn(C4(F)CC4)cc3c1)c1cccc(F)c1)nc2-c1cccc(Cl)c1Cl` [Example 339] was tested, and the EC50 was < 0.2 µM.
`COc1cc(C(=O)NC[C@@](O)(c2cccc(F)n2)c2cc3c(c(-c4ccc(F)c(Cl)c4Cl)n2)OC[C@]3(C)C(N)=O)cc2cn(C3CC3)nc12` [Example 340] was tested, and the EC50 was < 0.2 µM.
In the case of `COc1cc(C(=O)NC[C@@](O)(c2ccccc2)c2cc3c(c(-c4cc(Cl)c(F)cc4F)n2)OC[C@]3(C)C(N)=O)cc2cc(Cl)c(F)nc12` [Example 342], the EC50 is reported as > 0.2 µM.
With `C[C@]1(C(N)=O)COc2c1cc([C@@](O)(CNC(=O)c1cc(Cl)c3nn(C4CC4)cc3c1)C1CC1)nc2-c1cc(C(F)(F)F)ncc1F` [Example 353] the EC50 was < 0.2 µM.
For `COc1cc(C(=O)NC[C@](O)(c2cc3c(c(-c4cc(C(F)(F)F)ncc4F)n2)OC[C@]3(C)C(N)=O)C2CC2)cc2cc(C3CC3)nn12` [Example 354], the EC50 was < 0.2 µM.
In the case of `COc1cc(C(=O)NC[C@@](O)(c2ccccc2)c2cc3c(c(-c4ccnc(F)c4Cl)n2)OC[C@]3(C)C(N)=O)cc2cn(C(F)F)nc12` [Example 358], the EC50 is reported as < 0.2 µM.
With `COc1cc(C(=O)NC[C@@](O)(c2ccccc2)c2cc3c(c(-c4ccnc(F)c4Cl)n2)OC[C@]3(C)C(N)=O)cn2cc(C3CC3)nc12` [Example 359] the EC50 was < 0.2 µM.
With `COc1cc(C(=O)NCC(O)(c2ccccc2)c2cc3c(c(-c4ccc(F)cc4)n2)OC[C@]3(C)C(N)=O)cc2cn(C3(F)CC3)nc12` (stereo partly shown) [Example 361] the EC50 was > 0.2 µM.
For `COc1cc(C(=O)NCC(O)(c2ccccc2)c2cc3c(c(-c4ccc(F)c(Cl)c4)n2)OC[C@]3(C)C(N)=O)cc2cn(C3(F)CC3)nc12` (stereo partly shown) [Example 362], the EC50 was < 0.2 µM.
With `COc1cc(F)c(-c2nc([C@@](O)(CNC(=O)c3cc(OC)c4nn(C5(F)CC5)cc4c3)c3ccccc3)cc3c2OC[C@]3(C)C(N)=O)cc1F` [Example 363] the EC50 was > 0.2 µM.
In the case of `COc1cc(-c2nc([C@@](O)(CNC(=O)c3cc(OC)c4nn(C5(F)CC5)cc4c3)c3ccccc3)cc3c2OC[C@]3(C)C(N)=O)c(F)cc1F` [Example 364], the EC50 is reported as > 0.2 µM.
With `COc1cc(F)c(F)cc1-c1nc([C@@](O)(CNC(=O)c2cc(OC)c3nn(C4(F)CC4)cc3c2)c2ccccc2)cc2c1OC[C@]2(C)C(N)=O` [Example 365] the EC50 was < 0.2 µM.
`COc1cc(C(=O)NC[C@@](O)(c2ccccc2)c2cc3c(c(-c4cccc5c4OCO5)n2)OC[C@]3(C)C(N)=O)cc2cn(C3(F)CC3)nc12` [Example 366] was tested, and the EC50 was > 0.2 µM.
With `COc1cc(C(=O)NC[C@@](O)(c2ccccc2)c2cc3c(c(-c4cccc(F)c4F)n2)OC[C@]3(C)C(N)=O)cc2cn(C3(F)CC3)nc12` [Example 367] the EC50 was < 0.2 µM.
For `COc1cc(C(=O)NC[C@@](O)(c2ccccc2)c2cc3c(c(-c4cccc(F)c4Cl)n2)OC[C@]3(C)C(N)=O)cc2cn(C3(F)CC3)nc12` [Example 368], the EC50 was < 0.2 µM.
`COc1cc(C(=O)NC[C@@](O)(c2ccccc2)c2cc3c(c(-c4cccc(Cl)c4F)n2)OC[C@]3(C)C(N)=O)cc2cn(C3(F)CC3)nc12` [Example 369] was tested, and the EC50 was < 0.2 µM.
With `COc1cc(C(=O)NC[C@@](O)(c2ccccc2)c2cc3c(c(-c4ccc(F)c(F)c4Cl)n2)OC[C@]3(C)C(N)=O)cc2cn(C3(F)CC3)nc12` [Example 370] the EC50 was < 0.2 µM.
In the case of `COc1cc(C(=O)NC[C@@](O)(c2ccccc2)c2cc3c(c(-c4ccc(S(C)(=O)=O)cc4F)n2)OC[C@]3(C)C(N)=O)cc2cn(C3(F)CC3)nc12` [Example 371], the EC50 is reported as > 0.2 µM.
With `COc1cc(C(=O)NC[C@@](O)(c2ccccc2)c2cc3c(c(-c4cc(S(C)(=O)=O)ccc4F)n2)OC[C@]3(C)C(N)=O)cc2cn(C3(F)CC3)nc12` [Example 372] the EC50 was > 0.2 µM.
For `COc1cccc(-c2nc([C@@](O)(CNC(=O)c3cc(OC)c4nn(C5(F)CC5)cc4c3)c3ccccc3)cc3c2OC[C@]3(C)C(N)=O)c1Cl` [Example 374], the EC50 was < 0.2 µM.
In the case of `COc1c(F)ccc(-c2nc([C@@](O)(CNC(=O)c3cc(OC)c4nn(C5(F)CC5)cc4c3)c3ccccc3)cc3c2OC[C@]3(C)C(N)=O)c1Cl` [Example 375], the EC50 is reported as < 0.2 µM.
In the case of `COc1cc(C(=O)NC[C@@](O)(c2cccc(F)c2)c2cc3c(c(-c4ccncc4Cl)n2)OC[C@]3(C)C(N)=O)cc2cn(C3CC3)nc12` [Example 377], the EC50 is reported as > 0.2 µM.
In the case of `COc1cc(C(=O)NC[C@](O)(c2cc3c(c(-c4ccnc(F)c4F)n2)OC[C@]3(C)C(N)=O)C2CC2)cc2cn(C3CC3)nc12` [Example 381], the EC50 is reported as < 0.2 µM.
In the case of `COc1cc(C(=O)NC[C@](O)(c2cc3c(c(-c4cc(F)ncc4F)n2)OC[C@]3(C)C(N)=O)C2CC2)cc2cn(C3CC3)nc12` [Example 382], the EC50 is reported as < 0.2 µM.
For `COc1cc(C(=O)NC[C@](O)(c2cc3c(c(-c4ccnc(F)c4C)n2)OC[C@]3(C)C(N)=O)C2CC2)cc2cn(C3CC3)nc12` [Example 383], the EC50 was < 0.2 µM.
In the case of `COc1cc(C(=O)NC[C@](O)(c2cc3c(c(-c4cc(F)ncc4Cl)n2)OC[C@]3(C)C(N)=O)C2CC2)cc2cn(C3CC3)nc12` [Example 384], the EC50 is reported as < 0.2 µM.
In the case of `COc1cc(C(=O)NC[C@](O)(c2cc3c(c(-c4ccc(SC(F)(F)F)cc4)n2)OC[C@]3(C)C(N)=O)C2CC2)cc2cn(C3CC3)nc12` [Example 386], the EC50 is reported as > 0.2 µM.
In the case of `COc1cc(C(=O)NC[C@](O)(c2cc3c(c(-c4ccnc(Cl)c4Cl)n2)OC[C@]3(C)C(N)=O)C2CC2)cc2cn(C3CC3)nc12` [Example 387], the EC50 is reported as < 0.2 µM.
For `COc1cc(-c2nc([C@@](O)(CNC(=O)c3cc(OC)c4nn(C5CC5)cc4c3)C3CC3)cc3c2OC[C@]3(C)C(N)=O)c(F)cn1` [Example 388], the EC50 was < 0.2 µM.
With `COc1cc(C(=O)NC[C@](O)(c2cc3c(c(-c4cc(Cl)ncc4Cl)n2)OC[C@]3(C)C(N)=O)C2CC2)cc2cn(C3CC3)nc12` [Example 389] the EC50 was < 0.2 µM.
With `COc1cc(C(=O)NC[C@](O)(c2cc3c(c(-c4cc(C(F)(F)F)c(F)cc4F)n2)OC[C@]3(C)C(N)=O)C(F)(F)F)cc2cn(C3CC3)nc12` [Example 395] the EC50 was < 0.2 µM.
With `COc1cc(C(=O)NC[C@](O)(c2cc3c(c(-c4cc(C(F)F)c(F)cc4F)n2)OC[C@]3(C)C(N)=O)C(F)(F)F)cc2cn(C3CC3)nc12` [Example 396] the EC50 was < 0.2 µM.
For `COc1cc(C(=O)NC[C@@](O)(c2cccc(F)c2)c2cc3c(c(-c4ccc(C(C)(C)O)cc4)n2)OC[C@]3(C)C(N)=O)cc2cn(C3(F)CC3)nc12` [Example 397], the EC50 was > 0.2 µM.
`COc1cc(C(=O)NC[C@](O)(c2cccc(F)c2)c2cc3c(c(-c4ccc(C(C)(C)O)cc4)n2)OC[C@]3(C)C(N)=O)cc2cn(C3(F)CC3)nc12` [Example 398] was tested, and the EC50 was > 0.2 µM.
